From US12459951B2, “Compounds that interact with RAS superfamily proteins for treatment of cancers, inflammatory diseases, rasopathies, and fibrotic disease” (SHY Therapeutics, LLC, priority 2022, dated 2025)

Key:
[1] = test system: Smad2/Smad3 phosphorylation; experiment: Phospho-Smad2/3 Inhibition Assay (western blot), Panc-1; assay type: cell-based, human; conditions: at 10 μM, Panc-1 pancreatic cancer cell line; starred symbols = activation
Procedure, shortened: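 Panc-1 cells (KRas G12D), starved overnight in 0.5% FBS, treated 3 h at 37° C with compound at 10 μM final (0.3% DMSO) or serial dilutions for IC50, then stimulated with 10 ng/ml TGF-b1 for 1 h. Phospho-Smad2 (Ser465/467) and phospho-Smad3 (Ser423/425) detected by western blot.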

IL6 = experiment: IL-6 Quantification Assay (ELISA), LPS-stimulated RAW 264.7; assay type: cell-based; parameters: inhibition: dose or concentration left out as unconfirmed; conditions: Mus musculus, RAW264.7; read-out: IL-6: % inh.
TNF-alpha = TNF-alpha Quantification Assay (ELISA), LPS-stimulated RAW 264.7; assay type: cell-based; conditions: Mus musculus, RAW264.7; at 10 μM; read-out: TNFα: % inh.
KRas G12D mutant = experiment: Ras GTP Binding Domain Inhibition Assay (Ras Superfamily Assay); conditions: 20 μM compound; for KRas G12D mutant + SOS: % inh.: with SOS; for KRas G12D mutant: % inh.: without SOS
Procedure, shortened: (§1)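 His-tagged GTPases immobilised on nickel-coated plates, pre-incubated with compound (20 μM single point, or serial dilution for IC50) 3 h at room temperature, with or without 10-30 μg/mL Sos (residues 556-1049) in the final hour. Bound Cy3- or Cy5-GTP (100 nM, 45 min) measured by fluorescence after washing.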

KRas wild type = experiment: as above; conditions: 20 μM compound; for KRas wild type + SOS: % inh.: with SOS; for KRas wild type: % inh.: without SOS
Procedure, shortened: as §1

Rac-1 = biological target: T1, Rac-1 (Homo sapiens, UniProt P63000); experiment: as above; conditions: read-out: Rac-1: % inh.
T1 construct: made in house
Procedure, shortened: as §1

Row | Structure (SMILES) | % inh of Smad2/3 phosphorylation in Panc-1 [1] | inhibition (IL6) | inhibition at 10 µM (TNF-alpha) | KRas G12D mutant + SOS: % inh. (KRas G12D mutant) | KRas G12D mutant: % inh. (KRas G12D mutant) | KRas wild type + SOS: % inh. (KRas wild type) | KRas wild type: % inh. (KRas wild type) | inhibition at 20 µM (Rac-1)
1 | COCCO[C@H]1C[C@H](Nc2nc(-c3nccn3C)nn3cc(-c4ccn(C)n4)c(C)c23)C1 [Compound 130, N-((1r,3r)-3-(2-Methoxyethoxy)cyclobutyl)-5-methyl-2-(1-methyl-1H-imidazol-2-yl)-6-(1-methyl-1H-pyrazol-3-yl)pyrrolo[2,1-f][1,2,4]triazin-4-amine] | C (C = 46-75% inhibition) | 0% | 1 to 24% | A (A = 1-25% inhibition) | B (B = 26-49% inhibition) | 0 (0 = 0% inhibition) | A (A = 1-25% inhibition) | 0%
2 | CO[C@H]1C[C@H](Nc2nc(-c3nccn3C)nn3cc(-c4ccncc4)c(C)c23)C1 [Compound 159, N-((1r,3r)-3-Methoxycyclobutyl)-5-methyl-2-(1-methyl-1H-imidazol-2-yl)-6-(pyridin-4-yl)pyrrolo[2,1-f][1,2,4]triazin-4-amine] | C (C = 46-75% inhibition) | 1 to 24% | 0% | 0 (0 = 0% inhibition) | 0 (0 = 0% inhibition) | 0 (0 = 0% inhibition) | A (A = 1-25% inhibition) | 0%
3 | CO[C@@H]1CC[C@@H](Nc2nc(-c3nccn3C)nn3cc(-c4cccnc4)c(C)c23)C1 (racemic) [Compound 154, rac N-((1R,3R)-3-methoxy-cyclopentyl)-5-methyl-2-(1-methyl-1H-imidazol-2-yl)-6-(pyridin-3-yl)pyrrolo[2,1-f][1,2,4]triazin-4-amine] | C (C = 46-75% inhibition) | 25 to 49% | 0% | D (D = 76-100% inhibition) | D (D = 76-100% inhibition) | B (B = 26-49% inhibition) | B (B = 26-49% inhibition) | 50 to 75%
4 | Cc1c(-c2ccn(C)n2)cn2nc(-c3nccn3C)nc(Nc3cc(OC4CC4)ccn3)c12 [Compound 126, N-(4-Cyclopropoxypyridin-2-yl)-5-methyl-2-(1-methyl-1H-imidazol-2-yl)-6-(1-methyl-1H-pyrazol-3-yl)pyrrolo[2,1-f][1,2,4]triazin-4-amine] | A* (A* = 1-25% activation) | 25 to 49% | 0% | B (B = 26-49% inhibition) | B (B = 26-49% inhibition) | A (A = 1-25% inhibition) | A (A = 1-25% inhibition) | 26 to 49%
5 | Cc1c(-c2ccn(C)n2)cn2nc(-c3nccn3C)nc(Nc3cc(OC(F)(F)F)ccn3)c12 [Compound 127, 5-Methyl-2-(1-methyl-1H-imidazol-2-yl)-6-(1-methyl-1H-pyrazol-3-yl)-N-(4-(trifluoromethoxy)pyridin-2-yl)pyrrolo[2,1-f][1,2,4]triazin-4-amine] | A (A = 1-25% inhibition) | 50 to 74% | 0% | D (D = 76-100% inhibition) | D (D = 76-100% inhibition) | D (D = 76-100% inhibition) | D (D = 76-100% inhibition) | 76 to 100%
6 | COCCO[C@H]1C[C@H](Nc2nc(-c3nccn3C)nn3cc(-c4ccnc(OC)c4)c(C)c23)C1 [Compound 161, N-((1r,3r)-3-(2-Methoxy-ethoxy)cyclo-butyl)-6-(2-methoxy-pyridin-4-yl)-5-methyl-2-(1-methyl-1H-imidazol-2-yl)pyrrolo[2,1-f][1,2,4]triazin-4-amine] | B (B = 26-45% inhibition) | 75 to 100% | 50 to 74% | 0 (0 = 0% inhibition) | A (A = 1-25% inhibition) | 0 (0 = 0% inhibition) | A (A = 1-25% inhibition) | 1 to 25%
7 | COc1cncnc1Nc1nc(-c2nccn2C)nn2cc(-c3ccn(C)n3)c(C)c12 [Compound 107, N-(5-Methoxypyrimidin-4-yl)-5-methyl-2-(1-methyl-1H-imidazol-2-yl)-6-(1-methyl-1H-pyrazol-3-yl)pyrrolo[2,1-f][1,2,4]triazin-4-amine] | A (A = 1-25% inhibition) | 25 to 49% | 1 to 24% | C (C = 50-75% inhibition) | C (C = 50-75% inhibition) | D (D = 76-100% inhibition) | C (C = 50-75% inhibition) | 76 to 100%
8 | COc1cc(-c2cn3nc(-c4nccn4C)nc(N[C@@H]4CC[C@H](OC)C4)c3c2C)ccn1 (racemic) [Compound 164, rac N-((1R,3S)-3-Methoxycyclopentyl)-6-(2-methoxypyridin-4-yl)-5-methyl-2-(1-methyl-1H-imidazol-2-yl)pyrrolo[2,1-f][1,2,4]triazin-4-amine] | A* (A* = 1-25% activation) | 75 to 100% | 1 to 24% | 0 (0 = 0% inhibition) | A (A = 1-25% inhibition) | A (A = 1-25% inhibition) | A (A = 1-25% inhibition) | 1 to 25%
9 | COCCOc1cc(Nc2nc(-c3nccn3C)nn3cc(-c4ccn(C(C)C)n4)c(C)c23)ncn1 [Compound 122, 6-(1-Isopropyl-1H-pyrazol-3-yl)-N-(6-(2-methoxyethoxy)pyrimidin-4-yl)-5-methyl-2-(1-methyl-1H-imidazol-2-yl)pyrrolo[2,1-f][1,2,4]triazin-4-amine] | C (C = 46-75% inhibition) | 50 to 74% | 1 to 24% | D (D = 76-100% inhibition) | D (D = 76-100% inhibition) | D (D = 76-100% inhibition) | D (D = 76-100% inhibition) | 76 to 100%
10 | Cc1c(-c2ccn(C)n2)cn2nc(-c3nccn3C)nc(Nc3nnco3)c12.Cl [Compound 119, N-(5-Methyl-2-(1-methyl-1H-imidazol-2-yl)-6-(1-methyl-1H-pyrazol-3-yl)pyrrolo[2,1-f][1,2,4]triazin-4-yl)-1,3,4-oxadiazol-2-amine hydrochloride salt] | B* (B* = 26-45% activation) | 50 to 74% | 25 to 49% | B (B = 26-49% inhibition) | C (C = 50-75% inhibition) | A (A = 1-25% inhibition) | C (C = 50-75% inhibition) | 26 to 49%
11 | COc1cc(-c2cn3nc(-c4nccn4C)nc(N[C@H]4C[C@H](OC)C4)c3c2C)ccn1 [Compound 160, N-((1r,3r)-3-Methoxycyclobutyl)-6-(2-methoxypyridin-4-yl)-5-methyl-2-(1-methyl-1H-imidazol-2-yl)pyrrolo[2,1-f][1,2,4]triazin-4-amine] | A* (A* = 1-25% activation) | 75 to 100% | 25 to 49% | A (A = 1-25% inhibition) | 0 (0 = 0% inhibition) | 0 (0 = 0% inhibition) | 0 (0 = 0% inhibition) | 1 to 25%
12 | Cc1c(-c2ccn(C)n2)cn2nc(-c3nccn3C)nc(Nc3cc(OCCO)ncn3)c12 [Compound 101, 2-((6-((5-Methyl-2-(1-methyl-1H-imidazol-2-yl)-6-(1-methyl-1H-pyrazol-3-yl)pyrrolo[2,1-f][1,2,4]triazin-4-yl)amino)pyrimidin-4-yl)oxy) ethan-1-ol] | D* (D* = 76-100% activation) | 50 to 74% | 0% | C (C = 50-75% inhibition) | D (D = 76-100% inhibition) | B (B = 26-49% inhibition) | D (D = 76-100% inhibition) | 76 to 100%
13 | CO[C@H]1C[C@@H](Nc2nc(-c3nccn3C)nn3cc(-c4ccn(C)n4)c(C)c23)C1 [Compound 131, N-((1s,3s)-3-Methoxycyclobutyl)-5-methyl-2-(1-methyl-1H-imidazol-2-yl)-6-(1-methyl-1H-pyrazol-3-yl)pyrrolo[2,1-f][1,2,4]triazin-4-amine] | 0 (0 = 0% inhibition) | 0% | 1 to 24% | 0 (0 = 0% inhibition) | A (A = 1-25% inhibition) | 0 (0 = 0% inhibition) | B (B = 26-49% inhibition) | 0%
